Laboratory results: patent publication US4303592A (priority 1980, dated 1981)
Where two headings read alike, the source gives them in different places.

Legend:
chymotrypsin [1] = details: large excess with respect to enzyme; cited from earlier work
trypsin [2] = details: large excess with respect to enzyme; cited from earlier work
Trypsin [3] = target: T1, Trypsin (Bos taurus, UniProt P00760); test: inactivation of trypsin by meta amidinophenylmethylsulfonylfluoride; format: biochemical, bovine; details: equimolar or greater amounts of reagent; FIG. 2
T1 sequence (P00760 24-246): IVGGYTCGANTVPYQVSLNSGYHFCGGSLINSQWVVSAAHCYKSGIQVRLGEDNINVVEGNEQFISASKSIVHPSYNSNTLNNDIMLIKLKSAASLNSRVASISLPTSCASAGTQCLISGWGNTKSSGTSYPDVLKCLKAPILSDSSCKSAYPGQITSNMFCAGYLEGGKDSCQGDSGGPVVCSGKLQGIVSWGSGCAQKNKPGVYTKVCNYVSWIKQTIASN
Procedure: (§1) m-Amidinophenylmethylsulfonylfluoride was tested for inhibitory activity against bovine trypsin and chymotrypsin.

chymotrypsin [4] = test: inhibition of chymotrypsin by m-amidinophenylmethylsulfonylfluoride; format: biochemical; details: 30 minutes, four-fold molar excess
Procedure: as §1

serine proteases [5] = test: reactivity of para versus meta form
Trypsin [6] = target: T1, Trypsin; test: inhibition/inactivation of bovine trypsin; format: biochemical; details: for % Activity Remaining: Trypsin 60.6 μM, PAPMSF 127 μM
Cl-s = target: T2, Cl-s (Homo sapiens, UniProt P09871); test: inhibition/inactivation of human Cls; format: biochemical; details: for % Activity Remaining: Cl-s 27.5 μM, PAPMSF 64 μM
T2 sequence (P09871 438-688 limits assumed): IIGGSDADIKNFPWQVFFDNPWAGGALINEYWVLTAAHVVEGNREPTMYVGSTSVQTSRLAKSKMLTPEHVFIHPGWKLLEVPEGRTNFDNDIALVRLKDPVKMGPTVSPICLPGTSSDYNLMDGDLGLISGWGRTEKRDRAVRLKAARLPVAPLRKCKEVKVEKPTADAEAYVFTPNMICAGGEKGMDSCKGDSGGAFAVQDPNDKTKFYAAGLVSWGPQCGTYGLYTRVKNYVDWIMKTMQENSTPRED
T2 sequence (P09871 16-437 partner limits assumed): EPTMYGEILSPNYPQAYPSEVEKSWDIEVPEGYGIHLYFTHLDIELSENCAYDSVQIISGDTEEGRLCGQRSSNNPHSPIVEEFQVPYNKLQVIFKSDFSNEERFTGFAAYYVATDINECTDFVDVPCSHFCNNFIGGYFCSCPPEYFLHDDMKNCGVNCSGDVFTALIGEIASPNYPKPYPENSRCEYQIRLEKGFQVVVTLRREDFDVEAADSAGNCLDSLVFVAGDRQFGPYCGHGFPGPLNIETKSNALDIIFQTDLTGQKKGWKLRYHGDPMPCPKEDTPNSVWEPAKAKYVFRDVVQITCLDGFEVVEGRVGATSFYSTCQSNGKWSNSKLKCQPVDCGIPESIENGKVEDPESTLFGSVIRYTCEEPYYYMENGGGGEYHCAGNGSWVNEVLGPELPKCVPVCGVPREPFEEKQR

chymotrypsin [7] = test: inhibition of bovine chymotrypsin; format: biochemical; details: neutral pH, approximately 10-fold excess of reagent over enzyme; FIG. 1
serine proteases [8] = test: serine protease inactivation by known inactivators (background); format: biochemical; details: approximately 2:1 reagent:enzyme; Table 1
acetyl cholinesterase = test: inhibition of bovine acetyl cholinesterase
Thrombin = Thrombin (Homo sapiens, UniProt P00734); test: inhibition/inactivation of human thrombin; format: biochemical; details: for % Activity Remaining: Thrombin 74.5 μM, PAPMSF 159 μM
Cl-r = test: inhibition/inactivation of human Clr; format: biochemical
[9] = neutral pH, approximately 10-fold excess of reagent over enzyme, FIG. 1

In the case of `O=S(=O)(F)Cc1ccccc1` [Phenylmethanesulfonylfluoride], the “inhibition (in words)” value (chymotrypsin [1]) is given as “inhibits both trypsin and chymotrypsin” and the “inhibition (in words)” value (trypsin [2]) is given as “inhibits both trypsin and chymotrypsin”.
For `N=C(N)c1cccc(CS(=O)(=O)F)c1` [MAPMSF, m-Amidinophenylmethylsulfonylfluoride], the “inactivation (in words)” value (Trypsin [3]) was “slowly inactivated” and the loss of activity (chymotrypsin [4]) was “no loss of activity”.
For `N=C(N)c1ccc(CS(=O)(=O)F)cc1` [PAPMSF, p-amidinophenylmethylsulfonylfluoride], the “reactivity / activity relative to meta form” value (serine proteases [5]) was “higher activity than the meta form”, the “% Activity Remaining” value (Trypsin [6]; 1 min) was 0% and the “% Activity Remaining” value (Trypsin [6]; 5 min) was 0%. For the same compound, the “% Activity Remaining” value (Trypsin [6]; 10 min) was 0%, the “recovery of enzymatic activity after dialysis (irreversibility)” value (Trypsin [6]; dialysis of inactivated trypsin) was “did not lead to recovery of enzymatic activity” and the “inactivation (in words)” value (Trypsin [6]; [9]) was “rapidly inactivated”. The “rate of inactivation of trypsin, pH dependence” value (Trypsin [6]; pH 3.0, 5.0 or 7.4) was “essentially unchanged”, the “% Activity Remaining” value (Cl-s; 1 min) was 60% and the “% Activity Remaining” value (Cl-s; 5 min) was 59%. For the same compound, the “% Activity Remaining” value (Cl-s; 10 min) was 52%, the “inactivation (in words)” value (Cl-s; [9]) was “rapidly inactivated” and the “stability in water at high pH” value (stability; aqueous solutions above pH 8) was “can hydrolyze to sulfonic acid in water at high pH”. For the same compound, the “stability in solution in organic solvents” value (stability; methanol, acetone, ethanol, dimethylsulfoxide, acetonitrile, dimethylformamide and the like) was “stable in solution in organic solvents”, the “stability of salts at physiological conditions” value (stability; pH and contact with aqueous based body fluids) was “good stability at physiological conditions” and the solubility (solubility in water) was no more than 10 mM. For the same compound, the “inhibition (in words)” value (chymotrypsin [7]) was “not inhibited”, the “inhibition at lower concentrations (in words)” value (serine proteases [8]) was “still an effective inhibitor” and the “reaction with acetyl cholinesterase (in words)” value (acetyl cholinesterase) was “does not react with acetyl cholinesterase”. For the same compound, the “toxic properties compared with diisopropylfluorophosphate (in words)” value (acetyl cholinesterase; inferred from lack of reaction with acetyl cholinesterase) was “does not have the toxic properties previously described for diisopropylfluorophosphate”, the “inhibition (in words)” value (acetyl cholinesterase; [9]) was “not inhibited” and the “% Activity Remaining” value (Thrombin; 1 min) was 26%. For the same compound, the “% Activity Remaining” value (Thrombin; 5 min) was 24%, the “% Activity Remaining” value (Thrombin; 10 min) was 21% and the “inactivation (in words)” value (Thrombin; [9]) was “rapidly inactivated”. The “% Activity Remaining” value (Cl-r; Cl-r 4.8 μgm/ml, PAPMSF 130 μM, 10 min) was 25% and the “inactivation (in words)” value (Cl-r; [9]) was “rapidly inactivated”.
